Our source for the T/C values is PubChem BioAssay AID330 (DTP/NCI, 2004).

The assay relates to P388 leukemia ip, CD2F1 mice, survival T/C. Nature of the assay: NCI In Vivo Anticancer Drug Screen. Data for tumor model P388 Leukemia (intraperitoneal) in CD2F1 (CDF1) mice. Conditions: endpoint: median survival time, higher = longer survival. The procedure, abridged:
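Mice carrying the transplanted tumor received test compound or vehicle. Survival was recorded in each group, and the value is the treated-group measurement divided by that of the vehicle-treated control group.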

The mark [1] stands for this setting: dose: 50.0 mg/kg/injection, schedule: Q01DX009 (ip), vehicle: saline with Tween-80.
Where [2] appears, read: dose: 100.0 mg/kg/injection, schedule: Q01DX009 (ip), vehicle: saline with Tween-80.
Where [3] appears, read: dose: 200.0 mg/kg/injection, schedule: Q01DX009 (ip), vehicle: saline with Tween-80.
The mark [4] stands for this setting: dose: 12.5 mg/kg/injection, schedule: Q01DX009 (ip), vehicle: Klucel (hydroxypropylcellulose) (HPC).
Where [5] appears, read: dose: 12.5 mg/kg/injection, schedule: Q01DX009 (ip), vehicle: saline with Tween-80.
Where [6] appears, read: dose: 25.0 mg/kg/injection, schedule: Q01DX009 (ip), vehicle: Klucel (hydroxypropylcellulose) (HPC).
[7] abbreviates: dose: 25.0 mg/kg/injection, schedule: Q01DX009 (ip), vehicle: saline with Tween-80.
Setting [8] is: dose: 50.0 mg/kg/injection, schedule: Q01DX009 (ip), vehicle: Klucel (hydroxypropylcellulose) (HPC).
Where [9] appears, read: dose: 100.0 mg/kg/injection, schedule: Q01DX009 (ip), vehicle: Klucel (hydroxypropylcellulose) (HPC).
[10] abbreviates: dose: 60.0 mg/kg/injection, schedule: Q01DX005 (ip), vehicle: saline with Tween-80.
Setting [11] is: dose: 120.0 mg/kg/injection, schedule: Q01DX005 (ip), vehicle: saline with Tween-80.
The mark [12] stands for this setting: dose: 240.0 mg/kg/injection, schedule: Q01DX005 (ip), vehicle: saline with Tween-80.
The mark [13] stands for this setting: dose: 50.0 mg/kg/injection, schedule: Q01DX005 (ip), vehicle: Klucel (hydroxypropylcellulose) (HPC).
Where [14] appears, read: dose: 100.0 mg/kg/injection, schedule: Q01DX005 (ip), vehicle: Klucel (hydroxypropylcellulose) (HPC).
Setting [15] is: dose: 200.0 mg/kg/injection, schedule: Q01DX005 (ip), vehicle: Klucel (hydroxypropylcellulose) (HPC).

Where “and” joins values, the source holds several entries; their conditions need not be identical. Identical values can stand only once. Toxic doses and inconclusive results are not listed.

As for `O=C1c2ccccc2CC2CCCCC12` (stereo not given), the T/C reads like this: under setting [1], 103 % of control; under setting [2], 102 % of control; under setting [3], 108 % of control.
For the compound `Nc1nc(=S)c2ncn(C3OC(COC(=O)c4ccccc4)C(OC(=O)c4ccccc4)C3OC(=O)c3ccccc3)c2[nH]1` (stereo not given), the T/C is, setting by setting: (dose: 4.4 mg/kg/injection, schedule: Q01DX009 (ip), vehicle: saline with Tween-80) 109 % of control; (dose: 6.6 mg/kg/injection, schedule: Q01DX009 (ip), vehicle: saline with Tween-80) 113 % of control; (dose: 10.0 mg/kg/injection, schedule: Q01DX009 (ip), vehicle: saline with Tween-80) 122 % of control; (dose: 44.0 mg/kg/injection, schedule: Q04DX003 (ip), vehicle: saline with Tween-80) 108 % of control; under setting [1], 170 % of control; (dose: 66.0 mg/kg/injection, schedule: Q04DX003 (ip), vehicle: saline with Tween-80) 116 % of control. Further, the T/C under setting [2] was 90 % of control.
For the compound `C=CCc1ccccc1C`, the T/C by setting is: under setting [2], 109 % of control; under setting [3], 101 % of control.
Take `CCOC(=O)C(SC#N)[Se]c1ccccc1` (stereo not given): the T/C (dose: 50.0 mg/kg/injection, schedule: Q01DX005 (ip), vehicle: saline with Tween-80) was 106 % of control and the T/C (dose: 100.0 mg/kg/injection, schedule: Q01DX005 (ip), vehicle: saline with Tween-80) was 109 % of control.
Consider `CO[C@H]1/C=C/O[C@@]2(C)Oc3c(C)c(O)c4c(O)c(c(/C=N/N5C(C)CN(Cc6ccc(C#N)cc6)CC5C)c(O)c4c3C2=O)NC(=O)/C(C)=C\C=C\[C@H](C)[C@H](O)[C@@H](C)[C@@H](O)[C@@H](C)[C@H](OC(C)=O)[C@@H]1C` (stereo not given in full), for which the T/C by setting is: under setting [4], 93 % of control; under setting [5], 107 % of control; under setting [6], 87 % of control; under setting [7], 92 % of control; under setting [8], 86 % of control; under setting [1], 100 % of control and 95 % of control. In addition, the T/C runs as follows: under setting [9], 107 % of control; under setting [2], 113 % of control; (dose: 200.0 mg/kg/injection, schedule: Q01DX009 (ip), vehicle: Klucel (hydroxypropylcellulose) (HPC)) 107 % of control.
`O=C(CN1C(=O)c2ccccc2C1=O)OCCNCCCl`: the T/C is, setting by setting: (dose: 50.0 mg/kg/injection, schedule: Q01DX009 (ip), vehicle: saline) 99 % of control; (dose: 100.0 mg/kg/injection, schedule: Q01DX009 (ip), vehicle: saline) 106 % of control; (dose: 200.0 mg/kg/injection, schedule: Q01DX009 (ip), vehicle: saline) 107 % of control.
Consider `CCOc1cc(C(C)c2ccc(OC)cc2)c(OCC)cc1OC` (stereo not given), for which the T/C was 106 % of control under setting [10], 100 % of control under setting [11] and 103 % of control under setting [12].
Regarding `O=c1oc(-c2nc3sc4c(c3c(=O)o2)CCCC4)nc2sc3c(c12)CCCC3`, the T/C was 100 % of control under setting [13], 100 % of control under setting [14] and 93 % of control under setting [15].
With `O=C1CN2CCN3CC(=O)NC(=O)[C@H]3[C@H]2C(=O)N1`, the T/C is, setting by setting: under setting [10], 101 % of control; under setting [11], 101 % of control; under setting [12], 93 % of control.
For the compound `C1CCC2(CC1)NN=C1CCCCC12` (stereo not given), the T/C is 101 % of control (dose: 12.5 mg/kg/injection, schedule: Q01DX009 (ip), vehicle: other); 110 % of control (dose: 25.0 mg/kg/injection, schedule: Q01DX009 (ip), vehicle: other); 104 % of control (dose: 50.0 mg/kg/injection, schedule: Q01DX009 (ip), vehicle: other); 106 % of control (dose: 100.0 mg/kg/injection, schedule: Q01DX009 (ip), vehicle: other); 116 % of control (dose: 200.0 mg/kg/injection, schedule: Q01DX009 (ip), vehicle: other).
For the compound `CC#CC#C/C=C1/C=CC2(CCCCO2)O1` (stereo not given), the T/C by setting is: under setting [4], 100 % of control; under setting [6], 101 % of control; under setting [8], 107 % of control; under setting [9], 104 % of control.
Consider `O=[N+]([O-])c1ccc(S(=O)(=O)O)cc1` (tested in a mixture with another compound), for which the T/C (dose: 100.0 mg/kg/injection, schedule: Q04DX003 (ip), vehicle: saline with Tween-80) is 98 % of control; the T/C (dose: 200.0 mg/kg/injection, schedule: Q04DX003 (ip), vehicle: saline with Tween-80) is 101 % of control; the T/C (dose: 400.0 mg/kg/injection, schedule: Q04DX003 (ip), vehicle: saline with Tween-80) is 86 % of control.
`CN(C)CC(=O)Nc1ccc2c(c1)C(=O)c1ccc(NC(=O)CN(C)C)cc1C2=O`: the T/C is, setting by setting: under setting [13], 101 % of control; under setting [14], 97 % of control; under setting [15], 99 % of control.
As to `CN1C(=O)n2c(nc3ccccc32)C(N=[N+]=[N-])(N=[N+]=[N-])C1=O` (stereo not given), the T/C is, setting by setting: (dose: 15.0 mg/kg/injection, schedule: Q01DX005 (ip), vehicle: saline with Tween-80) 108 % of control; (dose: 30.0 mg/kg/injection, schedule: Q01DX005 (ip), vehicle: saline with Tween-80) 101 % of control; under setting [10], 101 % of control and 110 % of control.
As to `CCCCN(C)C(=S)N/N=C(\C)c1ccccn1`, the T/C is 98 % of control (dose: 6.25 mg/kg/injection, schedule: Q01DX009 (ip), vehicle: saline with Tween-80); 101 % of control under setting [5]; 111 % of control under setting [7].
Consider `O=S(=O)(O)CCCNC(CO)(CO)CO`, for which the T/C is, setting by setting: (dose: 60.0 mg/kg/injection, schedule: Q01DX005 (ip), vehicle: saline) 106 % of control; (dose: 120.0 mg/kg/injection, schedule: Q01DX005 (ip), vehicle: saline) 107 % of control; (dose: 240.0 mg/kg/injection, schedule: Q01DX005 (ip), vehicle: saline) 107 % of control.
For the compound `CCC(=O)NC1=C(Cl)C(=O)C(NC(=O)CC)=C(Cl)C1=O`, the T/C by setting is: under setting [8], 98 % of control; under setting [9], 98 % of control.
Take `CC(=O)Nc1cccc(N)c1`: the T/C reads like this: (dose: 33.0 mg/kg/injection, schedule: Q04DX003 (ip), vehicle: saline) 95 % of control; (dose: 50.0 mg/kg/injection, schedule: Q04DX003 (ip), vehicle: saline) 95 % of control; (dose: 75.0 mg/kg/injection, schedule: Q04DX003 (ip), vehicle: saline) 100 % of control.
`O=[N+]([O-])C(CO)(CO)CC(F)(F)F`: the T/C (dose: 6.25 mg/kg/injection, schedule: Q04DX003 (ip), vehicle: saline) was 100 % of control.
For `ClC1c2ccccc2-c2nsnc2C1Cl` (stereo not given), the T/C by setting is: under setting [7], 107 % of control; under setting [1], 90 % of control; under setting [2], 90 % of control; under setting [3], 100 % of control.
`O=C(O)CC(=O)N=c1snc(Nc2ccccc2)n1-c1ccccc1`: the T/C (dose: 6.25 mg/kg/injection, schedule: Q01DX009 (ip), vehicle: Klucel (hydroxypropylcellulose) (HPC)) is 101 % of control; the T/C under setting [4] was 102 % of control; the T/C under setting [6] was 99 % of control.
As for `O=C1C(=Cc2ccccc2O)C(=O)N(c2ccccc2)C(=S)N1c1ccccc1`, the T/C is, setting by setting: under setting [13], 100 % of control; under setting [14], 100 % of control; under setting [15], 100 % of control.
`CCOC(=O)Nc1nc2cc(C(=O)OC)n(C)c2s1`: the T/C under setting [1] is 95 % of control, the T/C under setting [2] was 86 % of control and the T/C under setting [3] was 88 % of control.
Turning to `Cc1ccc(-c2csc(=NCCc3ccccc3)n2-c2ccc(C)cc2)cc1`, the T/C was 97 % of control (dose: 12.5 mg/kg/injection, schedule: Q04DX002 (ip), vehicle: saline with Tween-80); 99 % of control (dose: 25.0 mg/kg/injection, schedule: Q04DX002 (ip), vehicle: saline with Tween-80); 88 % of control (dose: 50.0 mg/kg/injection, schedule: Q04DX002 (ip), vehicle: saline with Tween-80); 88 % of control (dose: 100.0 mg/kg/injection, schedule: Q04DX002 (ip), vehicle: saline with Tween-80); 93 % of control (dose: 400.0 mg/kg/injection, schedule: Q04DX002 (ip), vehicle: saline with Tween-80).
Turning to `CCOC(=O)C1=NN(c2ccccc2)C(C)(C(=O)OC)C1` (stereo not given), the T/C under setting [10] is 98 % of control, the T/C under setting [11] was 98 % of control and the T/C under setting [12] is 95 % of control.
For the compound `COC(=O)/C=C1/C(=O)N(C)c2ccccc21`, the T/C by setting is: under setting [5], 98 % of control and 102 % of control; under setting [7], 102 % of control and 111 % of control and 90 % of control; under setting [1], 100 % of control and 106 % of control and 92 % of control; under setting [2], 106 % of control and 110 % of control and 113 % of control.
